{"source": "patent US20180051017A1", "about": "“AGENT FOR TREATMENT OF SCHIZOPHRENIA” (Sumitomo Dainippon Pharma Co., Ltd., priority 2002, published 2018)", "key": {"[1]": {"tested_on": "patients with schizophrenia in the acute exacerbation phase", "test": "First stage phase II clinical trial, placebo-controlled double-blind: efficacy (BPRS, PANSS, CGI-S/I)", "format": "in vivo, human", "procedure": "(§1) According to the procedures as shown in Table 1 as described below, the placebo-controlled double blind experiment was done on 149 patients with schizophrenia in the acute exacerbation phase at 15 facilities in USA. The efficacy and safeness were studied when SM-13496 at a dose of 40 mg or 120 mg, or a placebo was orally administered once a day for 6 weeks after placebo washout."}, "[2]": {"tested_on": "patients with schizophrenia in the acute exacerbation phase", "test": "First stage phase II clinical trial: extrapyramidal symptom rating scales (AIMS, BAS, SAS)", "format": "in vivo, human", "settings": "for SAS (parkinsonism) score change, Average (SD) / BAS Global score (akathisia) change, Average (SD) / AIMS (dyskinesia) score change, Average (SD): n = 44-47", "procedure": "as §1\nAs is shown in Table 7, among the adverse events, the main side effects, a relationship of which to the SM-13496 cannot be denied, was suppression, nausea, akathisia, free-floating vertigo (excluding rotatory vertigo), sleepiness, headache. The occurrence of dystonic reaction was low (less than 4%) in the SM-13496-treated groups."}}, "note": "Structures can show the parent of a compound that is named as a salt.", "data": [{"smiles": "O=C1[C@@H]2[C@@H]3CC[C@@H](C3)[C@@H]2C(=O)N1C[C@@H]1CCCC[C@H]1CN1CCN(c2nsc3ccccc23)CC1", "note": "[SM-13496, (1R,2S,3R,4S)-N-[(1R,2R)-2-[4-(1,2-benzoisothiazol-3-yl)-1-piperazinyl-methyl]-1-cyclohexylmethyl]-2,3-bicyclo[2.2.1]heptanedicarboximide hydrochloride]", "values": [{"measurement": "Reductions in BPRS, CGI-I and CGI-S scores at end of trial compared to placebo", "setting": "[1]; 40 mg or 120 mg, 6 weeks after the administration", "result": "statistically significant"}, {"measurement": "Responder (BPRS reduction 20% or more, or CGI-I 1 or 2), Number", "setting": "[1]; 40 mg orally once a day for 6 weeks, 47 subjects, p 0.002 vs placebo", "result": 26}, {"measurement": "BPRS Total Score, change from before administration at end of trial (LOCF), Average (SD)", "setting": "[1]; 40 mg orally once a day for 6 weeks, 47 subjects, p 0.014 vs placebo", "result": "−10.0"}, {"measurement": "PANSS Total Score, change from before administration at end of trial (LOCF), Average (SD)", "setting": "[1]; 40 mg orally once a day for 6 weeks, 47 subjects, p 0.063 vs placebo", "result": "−14.1"}, {"measurement": "CGI-I at end of trial, Average (SD)", "setting": "[1]; 40 mg orally once a day for 6 weeks, n = 47, p 0.013 vs placebo", "result": "3.2 (1.56)"}, {"measurement": "Ratio of responders compared to placebo", "setting": "[1]; 40 mg- or 120 mg-treated group", "result": "statistically significant difference"}, {"measurement": "BPRS Total Score, change from before administration at end of trial (LOCF), Average (SD)", "setting": "[1]; 120 mg orally once a day for 6 weeks, 44 subjects, p 0.003 vs placebo", "result": "−11.3 (8.89)"}, {"measurement": "Responder (BPRS reduction 20% or more, or CGI-I 1 or 2), Number", "setting": "[1]; 120 mg orally once a day for 6 weeks, 44 subjects, p 0.007 vs placebo", "result": 22}, {"measurement": "PANSS Total Score, change from before administration at end of trial (LOCF), Average (SD)", "setting": "[1]; 120 mg orally once a day for 6 weeks, 44 subjects, p 0.010 vs placebo", "result": "−17.4 (15.70)"}, {"measurement": "CGI-I at end of trial, Average (SD)", "setting": "[1]; 120 mg orally once a day for 6 weeks, n = 42, p 0.005 vs placebo", "result": "3.0 (1.29)"}, {"measurement": "Reduction in PANSS score at end of experiment compared to placebo", "setting": "[1]; 120 mg, 6 weeks", "result": "statistically significant"}, {"measurement": "BPRS total score (LOCF) change with time compared to placebo (FIG. 1)", "setting": "[1]; SM-13496-treated groups, at 2 weeks or later, p<0.05", "result": "statistically significantly reduced"}, {"measurement": "SAS (parkinsonism) score change, Average (SD)", "setting": "[2]; 40 mg orally once a day for 6 weeks, p 0.588 vs placebo", "result": "0.1 (1.08)"}, {"measurement": "BAS Global score (akathisia) change, Average (SD)", "setting": "[2]; 40 mg orally once a day for 6 weeks, p 0.687 vs placebo", "result": "0.1 (1.04)"}, {"measurement": "AIMS (dyskinesia) score change, Average (SD)", "setting": "[2]; 40 mg orally once a day for 6 weeks, p 0.978 vs placebo", "result": "0.7 (2.88)"}, {"measurement": "Changes in AIMS, BAS, SAS score between the treated groups", "setting": "[2]; 40 mg, 120 mg and placebo groups", "result": "no significant difference"}, {"measurement": "BAS Global score (akathisia) change, Average (SD)", "setting": "[2]; 120 mg orally once a day for 6 weeks, p 0.352 vs placebo", "result": "0.4 (0.94)"}, {"measurement": "AIMS (dyskinesia) score change, Average (SD)", "setting": "[2]; 120 mg orally once a day for 6 weeks, p 0.467 vs placebo", "result": "0.2 (2.21)"}, {"measurement": "SAS (parkinsonism) score change, Average (SD)", "setting": "[2]; 120 mg orally once a day for 6 weeks, p 0.808 vs placebo", "result": "0.1 (1.11)"}, {"measurement": "Ratio of the patients requiring benztropine", "setting": "[2]; SM-13496-treated groups", "result": 24, "unit": "%"}]}]}
